Measured values taken from patent US3981814A, “Bacteriostatic substituted benzanilide compositions and methods for their use” (Givaudan Corporation, priority 1975, dated 1976).
In brackets after ≈: the same amount, converted by molar mass.

System: Staphylococcus aureus
Assay: In vitro soap bacteriostatic test (agar dilution, spot inoculation, 35°, 48 hours)
Format: cell-based
Conditions: for MIC: Staphylococcus aureus, without soap, read-out: Compound Activity Without Soap: minimum concentration where S. aureus growth is completely inhibited; for Compound Activity With Soap: minimum concentration where S. aureus growth is completely inhibited: ratio of soap to compound 100:1
Method: The antibacterial properties of the compounds prepared in Examples 1 - 14 were tested in soap. The in vitro soap bacteriostatic tests were conducted as follows: The compound is dissolved in a suitable solvent, usually dimethylformamide, to give a 6% solution. One-half ml. aliquot was added to 100 ml. of 3% solution of bar soap stock solution. The solid soap used was a neutral white toilet soap of the "LUX" type. The fatty acids in this soap were of the following composition: This yields an aqueous soap solution containing 30,000 mcg./ml. soap and 300 mcg./ml. compound. The soap/compound ratio in the latter is 100/l. A two-fold serial dilution series is prepared with this solution using sterile distilled water in test tubes such that the final volume in each tube is 2.0 ml. To each test tube is added 28 ml. of molten Dextrose Trypticase Extract Agar (B.B.L.). The tube contents were poured into sterile Petri plates and allowed to harden. The highest final concentration of compound in the serial dilution series is 20 mcg./ml. Plates were spot inoculated with a broth culture of Staphylococcus aureus and incubated at 35° for 48 hours. The lowest concentration completely inhibiting growth of the test organism, in mcg./ml. is recorded as the bacteriostatic concentration of the compound. Tests in the absence of soap are made in a similar manner except that all dilutions are made in solvent. The final concentration in the agar should not be greater than 5%. The results of these tests with the compounds of the present invention as compared with compounds having chemical structures closely related to the compounds of the present invention (designated by the symbol "C") are set forth in the Table. Column 1 contains the data as to the activity of the test solution without soap; column 2 refers to tests in which the ratio of soap to compound is 100:1. […] Growth is observed at the next lower concentration.

| SMILES | MIC [µg/mL] | Compound Activity With Soap: minimum concentration where S. aureus growth is completely inhibited |
| --- | --- | --- |
| O=C(Nc1cccc(C(F)(F)F)c1)c1ccc(Cl)cc1 [Compound 1, 4-Chloro-3'-(trifluoromethyl) benzanilide] | 10 (≈ 33.4 µM) | 0.625 µg/mL |
| O=C(Nc1cccc(C(F)(F)F)c1)c1cccc(Cl)c1 [Compound 2] | > 20 | 2.5 µg/mL |
| O=C(Nc1cccc(C(F)(F)F)c1)c1ccc(Br)cc1 [Compound 3] | > 20 | 2.5 µg/mL |
| O=C(Nc1cccc(C(F)(F)F)c1)c1cccc(Br)c1 [Compound 4] | > 20 | 2.5 µg/mL |
| O=C(Nc1cccc(C(F)(F)F)c1)c1ccc(Cl)c(Cl)c1 [Compound 5] | > 20 | 2.5 µg/mL |
| O=C(Nc1cccc(C(F)(F)F)c1)c1cc(Cl)cc(Cl)c1 [Compound 6] | > 20 | 2.5 µg/mL |
| O=C(Nc1ccc(Cl)c(C(F)(F)F)c1)c1ccc(C(F)(F)F)cc1 [Compound 7, 4'-Chloro-α,α,α,α',α ',α ', -hexafluoro-p-tolu-m-toluidide] | 0.625 (≈ 1.7 µM) | 0.312 µg/mL |
| O=C(Nc1ccc(Cl)c(C(F)(F)F)c1)c1ccc(Cl)cc1 [Compound 8, 4,4'-Dichloro-3'(trifluoromethyl) benzanilide] | 2.5 (≈ 7.48 µM) | 0.625 µg/mL |
| O=C(Nc1ccc(Cl)c(C(F)(F)F)c1)c1cccc(Cl)c1 [Compound 9, 3,4'-dichloro-α,α,α-trifluoro-m-benzo-toluidide] | > 20 | 0.625 µg/mL |
| O=C(Nc1ccc(Cl)c(C(F)(F)F)c1)c1ccc(Br)cc1 [Compound 10, 4-bromo-4'-chloro-α,α,α-trifluoro-m-benzotoluidide] | 0.625 (≈ 1.65 µM) | 0.312 µg/mL |
| O=C(Nc1ccc(Cl)c(C(F)(F)F)c1)c1cccc(Br)c1 [Compound 11] | > 20 | 2.5 µg/mL |
| O=C(Nc1ccc(Cl)c(C(F)(F)F)c1)c1ccc(Cl)c(Cl)c1 [Compound 12] | > 20 | 0.312 µg/mL |
| O=C(Nc1ccc(Br)c(C(F)(F)F)c1)c1cccc(Br)c1 [Compound 14, 3,4'-dibromo-α,α,α-trifluoro-m-benzotoluidide] | > 20 | 1.25 µg/mL |
| O=C(Nc1ccc(Br)c(C(F)(F)F)c1)c1ccc(Cl)cc1 [Compound 15, 4'-bromo-4-chloro-α,α,α-trifluoro-m-benzotoluidide] | 0.625 (≈ 1.65 µM) | 0.625 µg/mL |
| O=C(Nc1ccc(Br)c(C(F)(F)F)c1)c1ccc(Cl)c(Cl)c1 [Compound 16, 4'-bromo-3,4-dichloro-α,α,α-trifluoro-m-benzotoluidide] | > 20 | 0.312 µg/mL |
| O=C(Nc1ccc(F)c(C(F)(F)F)c1)c1ccc(Cl)cc1 [Compound 17, 4-chloro-α,α,α, 4'-tetrafluoro-m-benzotoluidide] | > 20 | 1.25 µg/mL |
| O=C(Nc1ccc(F)c(C(F)(F)F)c1)c1ccc(Br)cc1 [Compound 18, 4-bromo-α,α,α, 4' -tetrafluoro-m-benzotoluidide] | > 20 | 1.25 µg/mL |
| O=C(Nc1cc(C(F)(F)F)cc(C(F)(F)F)c1)c1ccc(Cl)c(Cl)c1 [Compound 21, 3,4-dichloro-α,α,α,α',α',α'-hexafluorobenzo-3',5'-xylidide] | > 20 | 0.312 µg/mL |
| CC(C)(C)c1ccc(C(=O)Nc2ccc(Cl)c(C(F)(F)F)c2)cc1 [Compound 22] | > 20 | 2.5 µg/mL |
| O=C(Nc1cccc(C(F)(F)F)c1)c1ccccc1Cl [Compound C1] | > 20 | 10.0 µg/mL |
| O=C(Nc1cccc(C(F)(F)F)c1)c1ccccc1Br [Compound C2] | > 10 | B (Inactive at 10 mcg./ml. (highest concentration tested)) |
| O=C(Nc1cccc(C(F)(F)F)c1)c1ccc(F)cc1 [Compound C3] | > 20 | 10.0 µg/mL |

Continued, in another order:

| MIC [µg/mL] | SMILES | Compound Activity With Soap: minimum concentration where S. aureus growth is completely inhibited |
| --- | --- | --- |
| > 20 | O=C(Nc1cccc(C(F)(F)F)c1)c1cccc(C(F)(F)F)c1 [Compound C4] | 10.0 µg/mL |
| > 20 | O=C(Nc1cccc(C(F)(F)F)c1)c1ccccc1 [Compound C5] | 10.0 µg/mL |
| > 10 | O=C(Nc1ccccc1C(F)(F)F)c1ccccc1Cl [Compound C8] | B (Inactive at 10 mcg./ml. (highest concentration tested)) |
| > 10 | O=C(Nc1ccc(C(F)(F)F)cc1)c1ccc(Cl)cc1 [Compound C9] | B (Inactive at 10 mcg./ml. (highest concentration tested)) |
| 20 (≈ 70.6 µM) | O=C(Nc1ccc(C(F)(F)F)cc1)c1ccc(F)cc1 [Compound C10] | 5.0 µg/mL |
| > 10 | O=C(Nc1ccc(Cl)c(C(F)(F)F)c1)c1cc(Cl)cc(Cl)c1 [Compound C11] | B (Inactive at 10 mcg./ml. (highest concentration tested)) |
| > 20 | O=C(Nc1ccc(Cl)c(C(F)(F)F)c1)c1ccccc1Cl [Compound C12] | 10.0 µg/mL |
| > 20 | O=C(Nc1ccc(Cl)c(C(F)(F)F)c1)c1ccc(F)cc1 [Compound C13] | 5.0 µg/mL |
| > 10 | O=C(Nc1ccc(Cl)c(C(F)(F)F)c1)c1ccccc1Br [Compound C14] | B (Inactive at 10 mcg./ml. (highest concentration tested)) |
| > 10 | O=C(Nc1cc(C(F)(F)F)ccc1Cl)c1ccc(Cl)cc1 [Compound C15] | B (Inactive at 10 mcg./ml. (highest concentration tested)) |
| > 10 | O=C(Nc1cc(C(F)(F)F)ccc1Cl)c1cccc(Cl)c1 [Compound C16] | B (Inactive at 10 mcg./ml. (highest concentration tested)) |
| > 10 | O=C(Nc1cc(C(F)(F)F)ccc1Cl)c1ccccc1Cl [Compound C17] | B (Inactive at 10 mcg./ml. (highest concentration tested)) |
| > 10 | O=C(Nc1cc(C(F)(F)F)ccc1Cl)c1ccc(F)cc1 [Compound C18] | B (Inactive at 10 mcg./ml. (highest concentration tested)) |
| > 10 | O=C(Nc1cc(C(F)(F)F)ccc1Cl)c1cccc(Br)c1 [Compound C19] | B (Inactive at 10 mcg./ml. (highest concentration tested)) |
| > 10 | O=C(Nc1ccc(Cl)cc1C(F)(F)F)c1ccc(Cl)cc1 [Compound C20] | B (Inactive at 10 mcg./ml. (highest concentration tested)) |
| > 10 | O=C(Nc1ccc(Cl)cc1C(F)(F)F)c1cccc(Cl)c1 [Compound C21] | B (Inactive at 10 mcg./ml. (highest concentration tested)) |
| > 10 | O=C(Nc1ccc(Cl)cc1C(F)(F)F)c1ccccc1Cl [Compound C22] | B (Inactive at 10 mcg./ml. (highest concentration tested)) |
| > 20 | N#CSc1ccc(NC(=O)c2ccc(Cl)cc2)cc1C(F)(F)F [Compound C23] | 5.0 µg/mL |
| > 10 | N#CSc1ccc(NC(=O)c2ccc(Cl)c(Cl)c2)cc1C(F)(F)F [Compound C24] | B (Inactive at 10 mcg./ml. (highest concentration tested)) |
| > 20 | O=C(Nc1cc(C(F)(F)F)cc(C(F)(F)F)c1)c1cccc(Cl)c1 [Compound C25] | 10.0 µg/mL |
| > 20 | O=C(Nc1cc(C(F)(F)F)cc(C(F)(F)F)c1)c1ccccc1Cl [Compound C26] | 10.0 µg/mL |
